Measured values published in US10577363B2, “Substituted piperidine compounds” (EPIZYME, INC., priority 2014, dated 2020).

Legend:
[1] = tested on: esophageal, liver and breast cancer cell lines; settings: several esophageal, dose-dependent; cited from earlier work
SMYD3 [2] = molecular target: T1, SMYD3 (Homo sapiens (Human), UniProt Q9H7B4); assay: SMYD3 biochemical assay (SPA, 3H-SAM methylation of MEKK2 protein substrate)
Summary of the method: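 Enzyme: untagged full-length human SMYD3 from E. coli; substrate GST-tagged MEKK2 from insect cells. Buffer 25 mM Tris-Cl pH 8.0, 1 mM TCEP, 0.005% BSG/Tween 20. 30 min compound–enzyme preincubation at RT; 3H-SAM/MEKK2 start; stop with cold SAM (100 uM final); SPA readout in cpm.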

SMYD3 [3] = molecular target: T1, SMYD3; assay: SMYD3 cell assay (Trimethyl-MEKK2 In-Cell Western in 293T/17 cells); assay type: cell-based
Summary of the method: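 In-Cell Western readout: methanol-fixed cells stained for trimethyl-MEKK2 and flag tag, ratio per well normalized to DMSO and background controls.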

[4] = IC50 values are an average of n = 1 to n = 50, read-out: SMYD3 Biochem IC50*
[5] = IC50 values are an average of n = 1 to n = 50, read-out: SMYD3 Cell IC50*

T1 sequence (Q9H7B4 whole entry): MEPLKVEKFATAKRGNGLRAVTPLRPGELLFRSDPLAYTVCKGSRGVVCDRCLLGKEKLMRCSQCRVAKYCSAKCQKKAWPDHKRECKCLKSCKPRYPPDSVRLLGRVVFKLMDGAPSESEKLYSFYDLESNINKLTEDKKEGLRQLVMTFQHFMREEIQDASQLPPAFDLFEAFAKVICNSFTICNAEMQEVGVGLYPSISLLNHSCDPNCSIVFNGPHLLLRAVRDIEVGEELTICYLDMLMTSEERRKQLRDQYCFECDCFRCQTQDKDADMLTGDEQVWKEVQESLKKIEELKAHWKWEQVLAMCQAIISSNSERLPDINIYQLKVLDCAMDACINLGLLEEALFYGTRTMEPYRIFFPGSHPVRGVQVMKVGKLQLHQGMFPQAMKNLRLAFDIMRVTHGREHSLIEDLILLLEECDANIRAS

Compound | inhibition of proliferation of cancer cell lines [1] | IC50 (SMYD3 [2]; [4]) | IC50 (SMYD3 [3]; [5]) | IC50 (SMYD3 [2]; Table 2A, read-out: SMYD3 Biochem IC50) | IC50 (SMYD3 [3]; Table 2A, read-out: SMYD3 Cell IC50)
Cc1cn(CCN2CCN(c3ccccc3-c3cc(C#N)cc(C(=O)NCCCN4CCCC4)c3)CC2)c2ccccc12 [LLY-507] | inhibited the proliferation | – | – | – | –
O=C(N[C@H]1C[C@H]2CC[C@@H](C1)N2S(=O)(=O)[C@@H]1CCCN(CCO)C1)c1cc(C2CC2)on1 [compound 981, 5-cyclopropyl-N-((1R,3R,5S)-8-(((R)-1-(2-hydroxyethyl)piperidin-3-yl)sulfonyl)-8-azabicyclo[3.2.1]octan-3-yl)isoxazole-3-carboxamide] | – | 127 nM | 466 nM | – | –
CN1CCCC1CS(=O)(=O)N1[C@@H]2CC[C@H]1C[C@@H](NC(=O)c1cc(C3CC3)on1)C2 (stereo partly drawn) [compound 982, 5-cyclopropyl-N-((1R,3r,5S)-8-(((1-methylpyrrolidin-2-yl)methyl)sulfonyl)-8-azabicyclo[3.2.1]octan-3-yl)isoxazole-3-carboxamide] | – | 134 nM | 819 nM | – | –
CC[C@H]1CNCCN1S(=O)(=O)N1CC[C@H](NC(=O)c2cc(C3CC3)on2)C[C@@H]1C [compound 983, 5-cyclopropyl-N-((2S,4S)-1-(((S)-2-ethylpiperazin-1-yl)sulfonyl)-2-methylpiperidin-4-yl)isoxazole-3-carboxamide] | – | 142 nM | 931 nM | – | –
C[C@H]1C[C@@H](NC(=O)c2cc(C3CC3)on2)CCN1S(=O)(=O)N1CCNC[C@@H]1c1ccccc1 [compound 984, 5-cyclopropyl-N-((2S,4S)-2-methyl-1-(((S)-2-phenylpiperazin-1-yl)sulfonyl)piperidin-4-yl)isoxazole-3-carboxamide] | – | 142 nM | 1850 nM | – | –
O=C(N[C@H]1C[C@H]2CC[C@@H](C1)N2S(=O)(=O)[C@H]1CCCN(CCO)C1)c1cc(C2CC2)on1 [compound 985, 5-cyclopropyl-N-((1R,3S,5S)-8-(((S)-1-(2-hydroxyethyl)piperidin-3-yl)sulfonyl)-8-azabicyclo[3.2.1]octan-3-yl)isoxazole-3-carboxamide] | – | 155 nM | 708 nM | – | –
COCCNCc1ccc(S(=O)(=O)N2[C@@H]3CC[C@H]2C[C@@H](NC(=O)c2cc(C4CC4)on2)C3)cc1 [compound 986, 5-cyclopropyl-N-((1R,3r,5S)-8-((4-(((2-methoxyethyl)amino)methyl)phenyl)sulfonyl)-8-azabicyclo[3.2.1]octan-3-yl)isoxazole-3-carboxamide] | – | 156 nM | 807 nM | – | –
CCc1cc(C(=O)N[C@@H]2CCN(S(=O)(=O)c3ccc(C(C)(C)N)cc3)[C@@H](C)C2)no1 [compound 987, N-((2S,4R)-1-((4-(2-aminopropan-2-yl)phenyl)sulfonyl)-2-methylpiperidin-4-yl)-5-ethylisoxazole-3-carboxamide] | – | 158 nM | 776 nM | – | –
CN(C)C(C)(C)c1ccc(S(=O)(=O)N2[C@@H]3CC[C@H]2C[C@@H](NC(=O)c2cc(C4CC4)on2)C3)cc1 [compound 988, 5-cyclopropyl-N-((1R,3r,5S)-8-((4-(2-(dimethylamino)propan-2-yl)phenyl)sulfonyl)-8-azabicyclo[3.2.1]octan-3-yl)isoxazole-3-carboxamide] | – | 158 nM | 1670 nM | – | –
C[C@H]1C[C@@H](NC(=O)c2cc(C3CC3)on2)CCN1S(=O)(=O)CC1CCCCN1 (stereo partly drawn) [compound 989, 5-cyclopropyl-N-((2S,4S)-2-methyl-1-((piperidin-2-ylmethyl)sulfonyl)piperidin-4-yl)isoxazole-3-carboxamide] | – | 175 nM | 1160 nM | – | –
O=C(N[C@H]1C[C@H]2CC[C@@H](C1)N2S(=O)(=O)N1CC2CCC(C1)N2CCC(F)(F)F)c1cc(C2CC2)on1 [compound 990, 5-cyclopropyl-N-((1R,3r,5S)-8-((8-(3,3,3-trifluoropropyl)-3,8-diazabicyclo[3.2.1]octan-3-yl)sulfonyl)-8-azabicyclo[3.2.1]octan-3-yl)isoxazole-3-carboxamide] | – | 184 nM | 935 nM | – | –
CCC[C@H]1C[C@@H](NC(=O)c2cc(C3CC3)on2)CCN1S(=O)(=O)CC1CCN(C)CC1 [compound 991, 5-cyclopropyl-N-((2S,4S)-1-(((1-methylpiperidin-4-yl)methyl)sulfonyl)-2-propylpiperidin-4-yl)isoxazole-3-carboxamide] | – | 187 nM | 2190 nM | – | –
C[C@H]1CN(S(=O)(=O)N2CC[C@H](NC(=O)c3cc(C4CC4)on3)C[C@@H]2C)[C@@H](C)CN1 [compound 992, 5-cyclopropyl-N-((2S,4S)-1-(((2S,5S)-2,5-dimethylpiperazin-1-yl)sulfonyl)-2-methylpiperidin-4-yl)isoxazole-3-carboxamide] | – | 188 nM | 1120 nM | – | –
CC(C)Cc1cc(C(=O)N[C@H]2C[C@H]3CC[C@@H](C2)N3S(=O)(=O)CC2CCN(C)CC2)no1 [compound 993, 5-isobutyl-N-((1R,3r,5S)-8-(((1-methylpiperidin-4-yl)methyl)sulfonyl)-8-azabicyclo[3.2.1]octan-3-yl)isoxazole-3-carboxamide] | – | 206 nM | 2770 nM | – | –
N-((2S,4S)-1-(3,8-diaza-bicyclo[3.2.1]octan-8-ylsulfonyl)-2-methylpiperidin-4-yl)-5-cyclopropylisoxazole-3-carboxamide [Cpd. No. 555] | – | – | – | 3.7 nM | 23.9 nM
